Reference: patent US20240306641A1, “P-BOOSTER” (EUROCHEM ANTWERPEN, priority 2021, published 2024)
“Also recorded” adds a separate entry of the source.

Columns and labels:
maize cultivar 8104 = experiment: Sand-based maize pot experiment; assay type: in vivo; details: low phosphate, 10 μM compound
Description: (§1) All Arabidopsis plant experiments were performed using the Arabidopsis thaliana Columbia-0 background. The Arabidopsis pSPX1::GUS line is described in the […] 2008, 54: 965-975. For rice, the cultivar Nipponbare was used. For maize, the cultivars DKC 2931 and 8104 were used for regular pot experiments and sand-based pot experiments, respectively. For soybean, the cultivar Primus was used. […] The medium was solidified due to the addition of 0.6% Gelrite, unless stated otherwise. In case of vertical plates (root length and root hair measurements), the medium was supplied with 0.5% of sucrose and 1 μM (low phosphate, 1 μM KH2PO4, 9.9 mM KCl), 10 μM (low phosphate 10 μM KH2PO4, 9.9 mM KCl) or 1.25 mM KH2PO4 (high phosphate). Arabidopsis seeds were stratified for 2 days at 4° C. before germination. Seedlings were germinated in climate-controlled growth chambers at 22° C. under continuous light ([…] m^−2 s^−1). Husked rice seeds were germinated on wetted Whatman paper for 2 days at 37° C. and then transferred to Sterivent boxes or square Petri dishes with solid medium. Maize and soybean seeds were wetted 24 hours at room temperature prior to sowing in pots.
Regular Arabidopsis, soybean and maize pot experiments used an unfertilized potting soil, which was supplemented at the start of the experiment with 50 ml H2O containing 0.25 g/l NH4NO3 and 0.44 g/l (high phosphate) or no (maize and soybean) or 0.11 g/l KH2PO (Arabidopsis) for low phosphate conditions. For the sand-based maize pot experiment, sand was supplemented with 50 ml H2O containing 0.25 g/l NH4NO3 and 0.38 g/l (high phosphate) or 0.02 g/l (low phosphate) KH2PO4. Potassium was balanced via addition of KCl. Compound concentration was 10 μM, calculated based on the total water content after watering, and was added at the start of the experiment (Arabidopsis) or once a week (maize). Indexed chlorophyll contents were received via a SPAD 502 Plus Chlorophyll Meter. All parameters in the sand experiment, except the rate of leaf 4 (measured the first 4 days after emergence), were measured 19 days after sowing. Measurements in the pot experiments with potting soil were done after 4 weeks of growth, except for leaf 5, which was measured at 26 days. The long term maize pot experiment was performed on the automated Phenovision platform (see Mertens et al, 2021, https://doi.org/10.3389/fpls.2021.640914) with maize cultivars B104 and DKC2931. End point measurements occurred after 90 days (B104) or 70 days (DKC2931). Plants were grown on an unfertilized potting soil, which was fertilized bi-weekly with 50 mL modified Hoagland solution (2.5× concentrated; but with 0.25 mM KH2PO4).

rice cultivar Nipponbare [1] = experiment: Rice plate experiment (plant height); assay type: in vivo; details: low phosphate 0.001 mM, 10 μM compound, 11 days after germination
Description: (§2) All Arabidopsis plant experiments were performed using the Arabidopsis thaliana Columbia-0 background. The Arabidopsis pSPX1::GUS line is described in the […] 2008, 54: 965-975. For rice, the cultivar Nipponbare was used. For maize, the cultivars DKC 2931 and 8104 were used for regular pot experiments and sand-based pot experiments, respectively. For soybean, the cultivar Primus was used. […] The medium was solidified due to the addition of 0.6% Gelrite, unless stated otherwise. […]
(§3) Arabidopsis primary root growth experiments were done on MS1/2 on vertical standing plates and roots were measured 11 days after germination. Roots were imaged using a flatbed scanner (EPSON Expression 11000XL) and root length was measured using ImageJ software. Arabidopsis shoot biomass was determined in 11 days after germination and growth on vertical standing plates with modMS. Arabidopsis leaf area was measured 21 days after germination on horizontal plates with modMS medium. Plates were scanned from the top using a flatbed scanner (EPSON Expression 11000XL) and the visible leaf area was measured using ImageJ software. […] Plant height was measured 11 days after germination. […] Plant height was measured 13 days after germination. […]

[2] = test system: Arabidopsis thaliana Columbia-0; experiment: Arabidopsis horizontal plate leaf area assay; assay type: in vivo
Description: as §1
Arabidopsis primary root growth experiments were done on MS1/2 on vertical standing plates and roots were measured 11 days after germination. Roots were imaged using a flatbed scanner (EPSON Expression 11000XL) and root length was measured using ImageJ software. Arabidopsis shoot biomass was determined in 11 days after germination and growth on vertical standing plates with modMS. Arabidopsis leaf area was measured 21 days after germination on horizontal plates with modMS medium. Plates were scanned from the top using a flatbed scanner (EPSON Expression 11000XL) and the visible leaf area was measured using ImageJ software. Rice plate experiments used vertically standing Petri dishes containing MS1/2 medium (low phosphate—0.001 mM) solidified with 0.8% washed agar. Plant height was measured 11 days after germination. Rice box experiments used modMS medium and a low phosphate condition of 0.025 mM phosphate. Plant height was measured 13 days after germination. All growth experiments occurred with 10 μM of compound and in low phosphate conditions, unless stated otherwise. Controls always received the same DMSO concentration.

soybean cultivar Primus = experiment: Soybean pot experiment; assay type: in vivo; details: low phosphate, 4 weeks
Description: as §2
Regular Arabidopsis, soybean and maize pot experiments used an unfertilized potting soil, which was supplemented at the start of the experiment with 50 ml H2O containing 0.25 g/l NH4NO3 and 0.44 g/l (high phosphate) or no (maize and soybean) or 0.11 g/l KH2PO (Arabidopsis) for low phosphate conditions. […] Compound concentration was 10 μM, calculated based on the total water content after watering, and was added at the start of the experiment (Arabidopsis) or once a week (maize). […] All parameters in the sand experiment, except the rate of leaf 4 (measured the first 4 days after emergence), were measured 19 days after sowing. Measurements in the pot experiments with potting soil were done after 4 weeks of growth, except for leaf 5, which was measured at 26 days. […]

[3] = test system: SPX1 phosphate starvation biomarker (pSPX1::GUS); experiment: Chemical activity assessment: SPX1 suppression in Arabidopsis pSPX1::GUS reporter line (GUS stained area); assay type: in vivo, Arabidopsis thaliana
Description: as §1
For the chemical activity assessment 3 to 8 seeds per well of Arabidopsis pSPX1::GUS line were sown in 96-well plates containing 150 μl of low phosphate modMS liquid medium containing 1% of sucrose. Compounds were added in 50 μM concentration, starting from a 5 mM stock of compounds solved in DMSO. Different chemical substances were separately added to different wells. Per plate, 16 control wells were used, 8 containing only the low phosphate medium and 1% DMSO, and 8 containing high phosphate medium and 1% DMSO. 7 days after germination, plates were scanned using a flatbed scanner (EPSON Expression 11000XL) and analyzed for leaf size. After scanning, the growth medium was replaced by GUS staining solution (see Plant Mol. Biol. Rep. 1994, 12: 37-42 for details) and incubated for 1.5 hours at 37° C. The plates were scanned a second time and analyzed for GUS signal area. Measurements of both leaf area and GUS signal area were conducted by filtering out and measure the green and blue signal, respectively using ImageJ software. If the green leaf area was 50% or less than the control, samples were omitted. Additionally, all results were visually screened for leaf size and GUS signal.
To identify new substances that suppress the expression of the SPX1 phosphate starvation biomarker, we used an Arabidopsis SPX1 reporter line pSPX1::GUS. […] This observation was confirmed in two experimental repeats.

[4] = test system: Arabidopsis thaliana Columbia-0; experiment: Arabidopsis vertical plate growth assay (primary root length, shoot biomass); assay type: in vivo; details: low phosphate
Description: as §1
Arabidopsis primary root growth experiments were done on MS1/2 on vertical standing plates and roots were measured 11 days after germination. Roots were imaged using a flatbed scanner (EPSON Expression 11000XL) and root length was measured using ImageJ software. Arabidopsis shoot biomass was determined in 11 days after germination and growth on vertical standing plates with modMS. Arabidopsis leaf area was measured 21 days after germination on horizontal plates with modMS medium. Plates were scanned from the top using a flatbed scanner (EPSON Expression 11000XL) and the visible leaf area was measured using ImageJ software. Rice plate experiments used vertically standing Petri dishes containing MS1/2 medium (low phosphate—0.001 mM) solidified with 0.8% washed agar. Plant height was measured 11 days after germination. […] Plant height was measured 13 days after germination. […]

[5] = test system: Arabidopsis thaliana Columbia-0; experiment: Arabidopsis 96-well plate anthocyanin quantification; assay type: in vivo
Description: Col-0 ecotype Arabidopsis seeds were sown in 96-well plates containing 150 μl of low phosphate modMS liquid medium containing 1% of sucrose. Compounds was added in 50 μM concentration (1% DMSO). Eight plants per repeat were collected 7 days after germination and put into a fresh Eppendorf. Extraction and quantification of anthocyanin levels was carried out according to The Plant cell 2013, 25:1641-1656. Anthocyanin levels were quantified by measuring absorption at 530 and 657 nm using a spectrophotometer and normalized to fresh weight input, and expressed relative to the low phosphate control. For pot experiments, the same procedure was followed with one 4-week old plant per sample.

rice cultivar Nipponbare [6] = experiment: Rice box experiment (plant height); assay type: in vivo; details: low phosphate 0.025 mM, 10 μM compound, 13 days after germination
Description: as §2, §3

[7] = Arabidopsis vertical plate, 10 μM compound, 11 days after germination

Q: What does the source list for `CCN(CCCNc1ncnc2nc(N)ccc12)c1ccccc1` [Example 1]?
A: Crown root number (maize cultivar 8104; 19 days after sowing): 8; Plant height (maize cultivar 8104; 19 days after sowing): 27 cm; Indexed chlorophyll content (maize cultivar 8104; SPAD meter, 19 days after sowing): 31; Growth rate of leaf 4 (maize cultivar 8104; first 4 days after emergence): 2.64 cm/day; Plant height (rice cultivar Nipponbare [1]): 15 cm; Leaf area ([2]; Arabidopsis horizontal plate, low phosphate, 10 μM compound, 21 days after germination (Table 1)): 94 mm^2; Leaf area in suboptimal phosphate conditions ([2]; Arabidopsis horizontal plate, suboptimal phosphate (600 μM), 10 μM compound): 120 mm^2; Average leaf area ([2]; Arabidopsis horizontal plates (Table 4), control without compound 63): 66 mm^2; Biomass (soybean cultivar Primus): 4.4 g; Plant height (soybean cultivar Primus): 63 cm; GUS (SPX1) stained area normalized to the number of seeds ([3]; 50 μM compound, low phosphate modMS liquid medium, 96-well, 7 days after germination, low phosphate control of same plate): 0.3 pixels; Suppression of the SPX1 biomarker (in words) ([3]; low phosphate, 7 days of growth, GUS staining, listed as compound 17): practically completely suppressed the SPX1 biomarker; also recorded: strongest suppression of SPX1; Primary root length compared with the control without compound (in words) ([4]; 10 μM, 11-day-old Arabidopsis): almost double the length of the control; Primary root length [4, 7]: 3.4 cm; Shoot biomass [4, 7]: 21 mg; Anthocyanin level in the leaves (in words) ([5]; 96-well plate assay): reduced; Relative anthocyanin level ([5]; Arabidopsis 96-well plate, low phosphate, 50 μM compound, 7 days after germination, relative to control (=1)): 0.6; Plant height (rice cultivar Nipponbare [6]): 4.1 cm
